US9169260B2 (MERCK SHARP & DOHME CORP., priority 2011, dated 2015)

target: GST tagged IRAK-4 (Homo sapiens (Human), UniProt Q9NWZ3); assay: IRAK-4 Kinase Assay (IMAP fluorescence polarization); type: biochemical; settings: 100 μM ATP, 30 minutes at 25° C.
Method in brief: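 Activity was read by IMAP fluorescence polarization, where phosphopeptide binding to M(III) nanoparticles raises FP. The 30-minute, 25° C reaction used 100 μM ATP, 100 nM RP7030 substrate and 0.5 nM GST-IRAK-4 in pH 7.2 Tris buffer with MgCl2, DTT and Tween 20.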

GST tagged IRAK-4, sequence (Q9NWZ3 whole entry): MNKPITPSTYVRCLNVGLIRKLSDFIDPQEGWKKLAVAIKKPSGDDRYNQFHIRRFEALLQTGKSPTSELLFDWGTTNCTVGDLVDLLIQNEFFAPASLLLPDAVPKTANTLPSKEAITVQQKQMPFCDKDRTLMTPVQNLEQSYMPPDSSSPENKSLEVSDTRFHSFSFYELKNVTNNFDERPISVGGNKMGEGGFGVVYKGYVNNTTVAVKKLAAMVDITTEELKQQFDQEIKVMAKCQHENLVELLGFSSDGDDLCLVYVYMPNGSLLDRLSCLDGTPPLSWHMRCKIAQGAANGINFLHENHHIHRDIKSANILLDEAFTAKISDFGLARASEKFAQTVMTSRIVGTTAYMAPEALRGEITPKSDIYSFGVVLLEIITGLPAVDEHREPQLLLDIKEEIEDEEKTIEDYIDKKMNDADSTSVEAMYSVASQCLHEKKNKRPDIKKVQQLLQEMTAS

| SMILES | IC50 |
| --- | --- |
| Cc1ccc(-n2nc(-c3ccc(CO)nc3)cc2NC(=O)c2cnn3cccnc23)cc1 [Example 330, N-{3-[6-(hydroxymethyl)pyridin-3-yl]-1-(4-methylphenyl)-1H-pyrazol-5-yl}pyrazolo[1,5-a]pyrimidine-3-carboxamide] | < 0.1 µM |
| Cc1ccc(-n2nc(-c3ccc(S(=O)(=O)C4CC4)cc3)cc2NC(=O)c2cnn3cccnc23)cc1 [Example 336, N-{3-[4-(cyclopropylsulfonyl)phenyl]-1-(4-methylphenyl)-1H-pyrazol-5-yl}pyrazolo[1,5-a]pyrimidine-3-carboxamide] | < 0.1 µM |
| Cc1ccc(-n2nc(-c3ccc(S(C)(=O)=O)cc3C(F)(F)F)cc2NC(=O)c2cnn3cccnc23)cc1 [Example 338, N-{1-(4-methylphenyl)-3-[4-(methylsulfonyl)-2-(trifluoromethyl)phenyl]-1H-pyrazol-5-yl}pyrazolo[1,5-a]pyrimidine-3-carboxamide] | 0.1 µM |

More lines, now with the values ahead:

| IC50 | SMILES |
| --- | --- |
| < 0.1 µM | Cc1ccc(-n2nc(-c3ccc(S(=O)(=O)N4CCN(C)CC4)cc3)cc2NC(=O)c2cnn3cccnc23)cc1 [Example 342, N-[1-(4-methylphenyl)-3-{4-[(4-methylpiperazin-1-yl)sulfonyl]phenyl}-1H-pyrazol-5-yl]pyrazolo[1,5-a]pyrimidine-3-carboxamide] |
| < 0.1 µM | CCN(CC)S(=O)(=O)c1ccc(-c2cc(NC(=O)c3cnn4cccnc34)n(-c3ccc(C)cc3)n2)cc1 [Example 343, N-{3-[4-(diethylsulfamoyl)phenyl]-1-(4-methylphenyl)-1H-pyrazol-5-yl}pyrazolo[1,5-a]pyrimidine-3-carboxamide] |
| < 0.1 µM | Cc1ccc(-n2nc(-c3ccc(S(=O)(=O)N4CCC4)cc3)cc2NC(=O)c2cnn3cccnc23)cc1 [Example 344, N-{3-[4-(azetidin-1-ylsulfonyl)phenyl]-1-(4-methylphenyl)-1H-pyrazol-5-yl}pyrazolo[1,5-a]pyrimidine-3-carboxamide] |
| < 0.1 µM | Cc1ccc(-n2nc(-c3ccc(S(=O)(=O)N(C)C)cc3C)cc2NC(=O)c2cnn3cccnc23)cc1 [Example 345, N-{3-[4-(dimethylsulfamoyl)-2-methylphenyl]-1-(4-methylphenyl)-1H-pyrazol-5-yl}pyrazolo[1,5-a]pyrimidine-3-carboxamide] |
| < 0.1 µM | CNS(=O)(=O)c1ccc(-c2cc(NC(=O)c3cnn4cccnc34)n(-c3ccc(C)cc3)n2)cc1 [Example 347, N-{1-(4-methylphenyl)-3-[4-(methylsulfamoyl)phenyl]-1H-pyrazol-5-yl}pyrazolo[1,5-a]pyrimidine-3-carboxamide] |
| < 0.1 µM | CNC(=O)c1ccc(-c2cc(NC(=O)c3cnn4cccnc34)n(-c3ccc(C)cc3)n2)cc1 [Example 348, N-{3-[4-(methylcarbamoyl)phenyl]-1-(4-methylphenyl)-1H-pyrazol-5-yl}pyrazolo[1,5-a]pyrimidine-3-carboxamide] |
| < 0.1 µM | Cc1ccc(-n2nc(-c3ccc(C(=O)N(C)C)cc3)cc2NC(=O)c2cnn3cccnc23)cc1 [Example 349, N-{3-[4-(dimethylcarbamoyl)phenyl]-1-(4-methylphenyl)-1H-pyrazol-5-yl}pyrazolo[1,5-a]pyrimidine-3-carboxamide] |

same assay, conditions: 100 μM ATP, 30 minutes at 25° C.; μM

| SMILES | IC50 |
| --- | --- |
| Cc1ccc(-n2nc(-c3cnn(C)c3)cc2NC(=O)c2cnn3cccnc23)cc1 [Example 326, N-[1′-methyl-1-(4-methylphenyl)-1H,1′H-3,4′-bipyrazol-5-]pyrazolo[1,5-a]pyrimidine-3-carboxamide] | < 1 µM |
| Cc1ccc(-n2nc(-c3ccnc(CO)c3)cc2NC(=O)c2cnn3cccnc23)cc1 [Example 329, N-{3-[2-(hydroxymethyl)pyridin-4-yl]-1-(4-methylphenyl)-1H-pyrazol-5-yl}pyrazolo[1,5-a]pyrimidine-3-carboxamide] | < 1 µM |
| Cc1ccc(-n2nc(-c3ccnn3C)cc2NC(=O)c2cnn3cccnc23)cc1 [Example 331, N-[2′-methyl-1-(4-methylphenyl)-1H,2′H-3,3′-bipyrazol-5-yl]pyrazolo[1,5-a]pyrimidine-3-carboxamide] | < 1 µM |
| Cc1ccc(-n2nc(-c3cncc(CO)c3)cc2NC(=O)c2cnn3cccnc23)cc1 [Example 332, N-{3-[5-(hydroxymethyl)pyridin-3-yl]-1-(4-methylphenyl)-1H-pyrazol-5-yl}pyrazolo[1,5-a]pyrimidine-3-carboxamide] | < 1 µM |
| Cc1ccc(-n2nc(-c3cnn(CCS(C)(=O)=O)c3)cc2NC(=O)c2cnn3cccnc23)cc1 [Example 333, N-{1-(4-methylphenyl)-1′-[2-(methylsulfonyl)ethyl]-1H,1′H-3,4′-bipyrazol-5-yl}pyrazolo[1,5-a]pyrimidine-3-carboxamide] | < 1 µM |
| Cc1ccc(-n2nc(-c3conc3C)cc2NC(=O)c2cnn3cccnc23)cc1 [Example 334, N-[3-(3-methylisoxazol-4-yl)-1-(4-methylphenyl)-1H-pyrazol-5-yl]pyrazolo[1,5-a]pyrimidine-3-carboxamide] | < 1 µM |
| Cc1ccc(-n2nc(-c3csc(N4CCOCC4)n3)cc2NC(=O)c2cnn3cccnc23)cc1 [Example 335, N-[1-(4-methylphenyl)-3-(2-morpholin-4-yl-1,3-thiazol-4-yl)-1H-pyrazol-5-yl]pyrazolo[1,5-a]pyrimidine-3-carboxamide] | < 1 µM |
| Cc1ccc(-n2nc(-c3ccc(=O)n(C)c3)cc2NC(=O)c2cnn3cccnc23)cc1 [Example 337, N-[3-(1-methyl-6-oxo-1,6-dihydropyridin-3-yl)-1-(4-methylphenyl)-1H-pyrazol-5-yl]pyrazolo[1,5-a]pyrimidine-3-carboxamide] | < 1 µM |
| Cc1ccc(-n2nc(-c3c(F)cccc3OCc3ccccc3)cc2NC(=O)c2cnn3cccnc23)cc1 [Example 339, N-{3-[2-(benzyloxy)-6-fluorophenyl]-1-(4-methylphenyl)-1H-pyrazol-5-yl}pyrazolo[1,5-a]pyrimidine-3-carboxamide] | < 1 µM |
| CCN(CC)S(=O)(=O)c1ccc(-c2cc(NC(=O)c3cnn4cccnc34)n(-c3ccc(C)cc3)n2)c(C)c1 [Example 340, N-{3-[4-(diethylsulfamoyl)-2-methylphenyl]-1-(4-methylphenyl)-1H-pyrazol-5-yl}pyrazolo[1,5-a]pyrimidine-3-carboxamide] | < 1 µM |

Further lines, results first:

| IC50 | SMILES |
| --- | --- |
| < 1 µM | Cc1ccc(-n2nc(-c3ccc(S(=O)(=O)C(C)C)cc3)cc2NC(=O)c2cnn3cccnc23)cc1 [Example 341, N-[3-{4-[(1-methylethyl)sulfonyl]phenyl}-1-(4-methylphenyl)-1H-pyrazol-5-yl]pyrazolo[1,5-a]pyrimidine-3-carboxamide] |
| < 1 µM | Cc1ccc(-n2nc(-c3cccc(NS(C)(=O)=O)c3)cc2NC(=O)c2cnn3cccnc23)cc1 [Example 346, N-[1-(4-methylphenyl)-3-{3-[(methylsulfonyl)amino]phenyl}-1H-pyrazol-5-yl]pyrazolo[1,5-a]pyrimidine-3-carboxamide] |
| < 1 µM | CNC(=O)c1cccc(-c2cc(NC(=O)c3cnn4cccnc34)n(-c3ccc(C)cc3)n2)c1 [Example 350, N-{3-[3-(methylcarbamoyl)phenyl]-1-(4-methylphenyl)-1H-pyrazol-5-yl}pyrazolo[1,5-a]pyrimidine-3-carboxamide] |
| < 1 µM | Cc1ccc(-n2nc(-c3ccc(S(C)(=O)=O)nc3)cc2NC(=O)c2cnn3cccnc23)cc1 [Example 351, N-{1-(4-methylphenyl)-3-[6-(methylsulfonyl)pyridin-3-yl]-1H-pyrazol-5-yl}pyrazolo[1,5-a]pyrimidine-3-carboxamide] |
